Consider 2 compounds from US4172138A, “Method and composition of matter for the treatment of dry cows for mastitis” (priority 1977, dated 1979).

Converted amounts (≈) assume the structure as drawn.

The conditions of data set [1]: cited from earlier work.
Data set [2] can be described thus: residual penicillin G in the udder of a treated dry cow over 30 days. In kind it is in vivo. As to conditions: for Residual Benzathine Penicillin G In The Udder: 500,000 units of the composition of Example 1; for Residual Procaine Penicillin G In The Udder: dosage of 500,000 u.
For data set [3] the following is noted: high concentration product, e.g. 1,000,000 units procaine penicillin G and 1,000 milligrams dihydrostreptomycin; in some cases; cited from earlier work.

As to `CC1(C)S[C@@H]2[C@H](NC(=O)Cc3ccccc3)C(=O)N2[C@H]1C(=O)O` [Benzathine Penicillin G, N, N dibenzyl ethylene diamine di benzyl penicillinate], the solubility in water in data set [1] (water) is 0.5 mg/mL (≈ 1500 µM). Moreover, the “Residual Benzathine Penicillin G In The Udder” value in data set [2] (day 8 past treatment) amounted to 5.37 u/ml; in data set [2] (day 10 past treatment), 3.67 u/ml; in data set [2] (day 12 past treatment) it was 4 u/ml; in data set [2] (day 16 past treatment), 3.57 u/ml; in data set [2] (day 23 past treatment), 2.2 u/ml; in data set [2] (day 30 past treatment) it was 0.11 u/ml. For the same compound, the “amount remaining for effectively treating mastitis, compared with procaine penicillin” value in data set [2] (over the extended 30 day treatment) was “substantially greater”.

Turning to `CC1(C)S[C@@H]2[C@H](NC(=O)Cc3ccccc3)C(=O)N2[C@H]1C(=O)O` [Procaine Penicillin G], in data set [1] (compared with limited solubility penicillin), the “solubility (in words)” value is listed as “greater solubility”. The “dissipation of procaine penicillin” value in data set [2] (after the 8th day) was “rapidly dissipated”. The “initial amount of procaine penicillin remaining, compared with benzathine penicillin G” value in data set [2] (at the 8th day) is recorded as “higher”. Besides, in data set [2] (by the tenth day), the “amount of procaine penicillin remaining relative to remaining benzathine penicillin G” value is on record as “less than half”. For the same compound, the “Residual Procaine Penicillin G In The Udder” value in data set [2] (day 8 past treatment) is on record as 7.68 u/ml; in data set [2] (day 10 past treatment) it was 1.56 u/ml; in data set [2] (day 12 past treatment), “.21 u/ml”; in data set [2] (day 16 past treatment, not detectable), “less than 0.01 u/ml”; in data set [2] (day 23 past treatment, not detectable), “less than 0.01 u/ml”; in data set [2] (day 30 past treatment, not detectable), “less than 0.01 u/ml”. Further, the “desired residual effects remain in the udder of a treated cow” value in data set [3] is reported as “only a few days”.
